Test systems include CAKI-1 renal; SK-OV-3 ovarian; SNB-19 CNS; MOLT-4 leukemia; MALME-3M melanoma; HOP-92 NSCLC; RXF 393 renal; ACHN renal; KM12 colon; SR leukemia.
Holding throughout (experiment): NCI-60 cell line screen, 48 h

Several values for one entry are separate records, joined by “and”; a condition that tells them apart may be missing. Equal entries are not always repeated.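 Each compound was tested at five concentrations against cells in 96-well plates for 48 hours. GI50 is the concentration that inhibits growth by half. The concentration for full growth arrest is given as TGI.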

From PubChem BioAssay (NCI) come the findings set out here.

Take `O=[N+]([O-])c1cccc(C2CC(c3ccccc3)=Nc3ccccc3S2)c1` (stereo unspecified): the GI50 in the test with CAKI-1 renal is 21.8 µM; in the test on SK-OV-3 ovarian it was 34.9 µM; in the test with SNB-19 CNS it was 15.4 µM; with MOLT-4 leukemia, 7.44 µM; in the test with MALME-3M melanoma, 17.9 µM; in the test on HOP-92 NSCLC, 14.3 µM. For the same compound, the GI50 in the test with RXF 393 renal is 17.2 µM; in the test on ACHN renal, 13.9 µM; in the test on KM12 colon it was 6.32 µM; with SR leukemia it was 3.4 µM. The TGI was greater than 100 µM in the test on CAKI-1 renal; greater than 100 µM with SK-OV-3 ovarian; 44.8 µM in the test on SNB-19 CNS; greater than 100 µM in the test with MOLT-4 leukemia; 46.1 µM in the test with MALME-3M melanoma; 45.6 µM in the test with HOP-92 NSCLC. Moreover, the TGI in the test on RXF 393 renal was 36.6 µM; in the test on ACHN renal, 28.5 µM; in the test on KM12 colon it was 19.3 µM; in the test with SR leukemia, greater than 100 µM.

Regarding `COc1cc2nc3cc([N+](=O)[O-])ccc3c(NCCNCC(C)(C)O)c2cc1OC`, the GI50 with CAKI-1 renal was 2.42 µM; in the test with SK-OV-3 ovarian, 2.01 µM; in the test on SNB-19 CNS, 0.472 µM; with MOLT-4 leukemia it was 0.354 µM; with MALME-3M melanoma it was 0.622 µM; with HOP-92 NSCLC it was 0.503 µM. Besides, the GI50 in the test with RXF 393 renal was 1.07 µM; in the test with ACHN renal, 0.657 µM; with KM12 colon it was 0.698 µM; in the test with SR leukemia it was 0.238 µM. The TGI is 11 µM with CAKI-1 renal; 6.51 µM in the test with SK-OV-3 ovarian; 2.83 µM in the test with SNB-19 CNS; 10.7 µM in the test with MOLT-4 leukemia; 1.97 µM in the test with MALME-3M melanoma; 2.43 µM in the test on HOP-92 NSCLC. In addition, the TGI was 2.87 µM with RXF 393 renal, 4.19 µM in the test on ACHN renal, 2.97 µM in the test with KM12 colon and 3.04 µM in the test with SR leukemia.

`CN(Cc1cnc2nc(N)nc(N)c2n1)c1ccc(C(=O)NC(CCC(=O)O)C(=O)O)cc1Br` (stereo unspecified): the GI50 is less than 0.01 µM with CAKI-1 renal; 0.047 µM in the test on SK-OV-3 ovarian; less than 0.01 µM with SNB-19 CNS; less than 0.01 µM in the test with MOLT-4 leukemia; less than 0.01 µM in the test with MALME-3M melanoma; 1.47 µM with HOP-92 NSCLC. For the same compound, the GI50 in the test with RXF 393 renal is 0.459 µM; in the test on ACHN renal, less than 0.01 µM; in the test on KM12 colon, less than 0.01 µM; with SR leukemia, less than 0.01 µM. For the same compound, the TGI in the test with SK-OV-3 ovarian is greater than 100 µM; with SNB-19 CNS, greater than 100 µM; with MOLT-4 leukemia, greater than 46.3 µM; in the test on MALME-3M melanoma, 3.92 µM; with HOP-92 NSCLC, 23.1 µM; in the test on RXF 393 renal, 5.01 µM. The TGI in the test with ACHN renal is greater than 100 µM; in the test with KM12 colon it was 11.6 µM; with SR leukemia, 8.49 µM.

On to `CO[C@H]1C[C@@H]2CC[C@@H](C)[C@@](O)(O2)C(=O)C(=O)N2CCCC[C@H]2C(=O)O[C@H]([C@H](C)C[C@@H]2CC[C@@H](OCCO)[C@H](OC)C2)CC(=O)[C@H](C)C=C(C)[C@@H](O)[C@@H](OC)C(=O)[C@H](C)C[C@H](C)/C=C/C=C/C=C1C`, for which the TGI in the test on CAKI-1 renal turned out to be 21 µM; in the test with SK-OV-3 ovarian, 20.5 µM; in the test with SNB-19 CNS, 19.5 µM; in the test with MOLT-4 leukemia, 20.3 µM; in the test with HOP-92 NSCLC it was 20 µM; in the test with ACHN renal, 18.8 µM. The TGI in the test on KM12 colon was found to be 21.2 µM; in the test with SR leukemia it was 10.2 µM. Besides, the GI50 in the test with SK-OV-3 ovarian was less than 0.01 µM; in the test with MALME-3M melanoma, less than 0.01 µM; in the test with HOP-92 NSCLC it was 0.0199 µM; in the test on RXF 393 renal, less than 0.01 µM; in the test on ACHN renal, less than 0.01 µM; in the test on KM12 colon, 1.18 µM. In addition, in the test with SR leukemia, the GI50 was less than 0.01 µM.

With `CCCCCCCCCCCCCC[C@@H](O)[C@H]1CC[C@H]([C@H]2CC[C@H]([C@H](O)CCCCCC[C@@H](O)CC3=C[C@H](C)OC3=O)O2)O1`, the GI50 in the test on CAKI-1 renal was 1.75 µM; in the test with SNB-19 CNS it was 1.75 µM; in the test on MOLT-4 leukemia it was 2.01 µM; in the test with HOP-92 NSCLC it was greater than 25 µM; in the test with RXF 393 renal, 2.72 µM; in the test on ACHN renal, 1.02 µM. Further, the GI50 was 1.55 µM with KM12 colon and 5.88 µM with SR leukemia. Also, the TGI in the test on CAKI-1 renal was 5.01 µM and > 25 µM; with SK-OV-3 ovarian, greater than 25 µM; in the test with SNB-19 CNS, 7.71 µM and > 25 µM; in the test on MOLT-4 leukemia, 8.81 µM and > 25 µM; with MALME-3M melanoma, greater than 25 µM; in the test on HOP-92 NSCLC, 8.37 µM and > 25 µM. Moreover, the TGI in the test with RXF 393 renal is greater than 25 µM; in the test on KM12 colon it was 4.1 µM and > 25 µM; with SR leukemia, 6.05 µM and > 25 µM.

Consider `C=CC(=O)N1CC2(CC(n3nc(-c4ccc5c(cnn5C)c4)c(-c4c(Cl)c(C)cc5[nH]ncc45)c3C)C2)C1`, for which the GI50 with CAKI-1 renal is 3.95 µM; in the test with SK-OV-3 ovarian it was 5.17 µM; with SNB-19 CNS it was 3.43 µM; in the test with MOLT-4 leukemia, 1.74 µM; in the test on MALME-3M melanoma it was 2.44 µM; in the test on HOP-92 NSCLC, 3.36 µM. For the same compound, the GI50 in the test with RXF 393 renal is 1.6 µM; with ACHN renal, 2.01 µM; with KM12 colon, 1.92 µM; in the test on SR leukemia, 1.61 µM. Moreover, the TGI with CAKI-1 renal came to 14.3 µM; in the test with SK-OV-3 ovarian it was 18.2 µM; with SNB-19 CNS, 13.5 µM; with MOLT-4 leukemia it was 9 µM; in the test on MALME-3M melanoma, 5.09 µM; with HOP-92 NSCLC it was 14.3 µM. Also, the TGI was found to be 3.49 µM in the test on RXF 393 renal, 4.81 µM in the test with ACHN renal, 3.72 µM in the test on KM12 colon and 6.12 µM in the test with SR leukemia.

Consider `ClC(Cl)[Si]12OCCN(CCO1)CCO2`, for which the TGI in the test with CAKI-1 renal, in the test with SK-OV-3 ovarian, in the test on SNB-19 CNS, in the test on MOLT-4 leukemia, in the test on MALME-3M melanoma and in the test on HOP-92 NSCLC was greater than 100 µM each time. For the same compound, the TGI in the test with RXF 393 renal, in the test with ACHN renal, with KM12 colon and with SR leukemia was greater than 100 µM each time.

With `N#CC1c2ccccc2C=CN1C(=O)N(c1ccccc1)c1ccccc1` (stereo unspecified), the GI50 in the test with CAKI-1 renal is 1.64 µM; in the test with SK-OV-3 ovarian, 16.5 µM; with SNB-19 CNS, 13.8 µM; in the test on MOLT-4 leukemia it was 2.44 µM; with MALME-3M melanoma, 1.61 µM; in the test with HOP-92 NSCLC it was 2 µM. Also, the GI50 was 1.73 µM in the test with RXF 393 renal, 1.79 µM with ACHN renal, 6.38 µM in the test with KM12 colon and 2.14 µM in the test on SR leukemia. Further, the TGI was 3.63 µM in the test on CAKI-1 renal; 31.3 µM in the test with SK-OV-3 ovarian; 26.8 µM in the test on SNB-19 CNS; 7.45 µM in the test with MOLT-4 leukemia; 3.55 µM with MALME-3M melanoma; 4.36 µM in the test on HOP-92 NSCLC. Besides, the TGI was 3.2 µM in the test with RXF 393 renal, 3.3 µM in the test with ACHN renal, 19.3 µM with KM12 colon and 6.32 µM in the test with SR leukemia.
